# Results from ChEMBL document CHEMBL6103629 (J Med Chem, 2025).
# Activity calls are given as the source filed them. No cut-off for these calls is given here.
# Key:
# [1] = system: CWR22R; test: Antiproliferative activity against human 22Rv1 cells incubated for 120 hrs by Cell-titer Glo luminescent assay; conditions: 22Rv1, 120 h
# [2] = biological target: Serine/threonine-protein kinase ATR (Homo sapiens, UniProt Q13535); test: Inhibition of ATR (unknown origin) assessed as reduction in p53 phosphorylation level incubated for 30 mins by TR-FRET assay
# Serine/threonine-protein kinase ATR, sequence (Q13535 whole entry): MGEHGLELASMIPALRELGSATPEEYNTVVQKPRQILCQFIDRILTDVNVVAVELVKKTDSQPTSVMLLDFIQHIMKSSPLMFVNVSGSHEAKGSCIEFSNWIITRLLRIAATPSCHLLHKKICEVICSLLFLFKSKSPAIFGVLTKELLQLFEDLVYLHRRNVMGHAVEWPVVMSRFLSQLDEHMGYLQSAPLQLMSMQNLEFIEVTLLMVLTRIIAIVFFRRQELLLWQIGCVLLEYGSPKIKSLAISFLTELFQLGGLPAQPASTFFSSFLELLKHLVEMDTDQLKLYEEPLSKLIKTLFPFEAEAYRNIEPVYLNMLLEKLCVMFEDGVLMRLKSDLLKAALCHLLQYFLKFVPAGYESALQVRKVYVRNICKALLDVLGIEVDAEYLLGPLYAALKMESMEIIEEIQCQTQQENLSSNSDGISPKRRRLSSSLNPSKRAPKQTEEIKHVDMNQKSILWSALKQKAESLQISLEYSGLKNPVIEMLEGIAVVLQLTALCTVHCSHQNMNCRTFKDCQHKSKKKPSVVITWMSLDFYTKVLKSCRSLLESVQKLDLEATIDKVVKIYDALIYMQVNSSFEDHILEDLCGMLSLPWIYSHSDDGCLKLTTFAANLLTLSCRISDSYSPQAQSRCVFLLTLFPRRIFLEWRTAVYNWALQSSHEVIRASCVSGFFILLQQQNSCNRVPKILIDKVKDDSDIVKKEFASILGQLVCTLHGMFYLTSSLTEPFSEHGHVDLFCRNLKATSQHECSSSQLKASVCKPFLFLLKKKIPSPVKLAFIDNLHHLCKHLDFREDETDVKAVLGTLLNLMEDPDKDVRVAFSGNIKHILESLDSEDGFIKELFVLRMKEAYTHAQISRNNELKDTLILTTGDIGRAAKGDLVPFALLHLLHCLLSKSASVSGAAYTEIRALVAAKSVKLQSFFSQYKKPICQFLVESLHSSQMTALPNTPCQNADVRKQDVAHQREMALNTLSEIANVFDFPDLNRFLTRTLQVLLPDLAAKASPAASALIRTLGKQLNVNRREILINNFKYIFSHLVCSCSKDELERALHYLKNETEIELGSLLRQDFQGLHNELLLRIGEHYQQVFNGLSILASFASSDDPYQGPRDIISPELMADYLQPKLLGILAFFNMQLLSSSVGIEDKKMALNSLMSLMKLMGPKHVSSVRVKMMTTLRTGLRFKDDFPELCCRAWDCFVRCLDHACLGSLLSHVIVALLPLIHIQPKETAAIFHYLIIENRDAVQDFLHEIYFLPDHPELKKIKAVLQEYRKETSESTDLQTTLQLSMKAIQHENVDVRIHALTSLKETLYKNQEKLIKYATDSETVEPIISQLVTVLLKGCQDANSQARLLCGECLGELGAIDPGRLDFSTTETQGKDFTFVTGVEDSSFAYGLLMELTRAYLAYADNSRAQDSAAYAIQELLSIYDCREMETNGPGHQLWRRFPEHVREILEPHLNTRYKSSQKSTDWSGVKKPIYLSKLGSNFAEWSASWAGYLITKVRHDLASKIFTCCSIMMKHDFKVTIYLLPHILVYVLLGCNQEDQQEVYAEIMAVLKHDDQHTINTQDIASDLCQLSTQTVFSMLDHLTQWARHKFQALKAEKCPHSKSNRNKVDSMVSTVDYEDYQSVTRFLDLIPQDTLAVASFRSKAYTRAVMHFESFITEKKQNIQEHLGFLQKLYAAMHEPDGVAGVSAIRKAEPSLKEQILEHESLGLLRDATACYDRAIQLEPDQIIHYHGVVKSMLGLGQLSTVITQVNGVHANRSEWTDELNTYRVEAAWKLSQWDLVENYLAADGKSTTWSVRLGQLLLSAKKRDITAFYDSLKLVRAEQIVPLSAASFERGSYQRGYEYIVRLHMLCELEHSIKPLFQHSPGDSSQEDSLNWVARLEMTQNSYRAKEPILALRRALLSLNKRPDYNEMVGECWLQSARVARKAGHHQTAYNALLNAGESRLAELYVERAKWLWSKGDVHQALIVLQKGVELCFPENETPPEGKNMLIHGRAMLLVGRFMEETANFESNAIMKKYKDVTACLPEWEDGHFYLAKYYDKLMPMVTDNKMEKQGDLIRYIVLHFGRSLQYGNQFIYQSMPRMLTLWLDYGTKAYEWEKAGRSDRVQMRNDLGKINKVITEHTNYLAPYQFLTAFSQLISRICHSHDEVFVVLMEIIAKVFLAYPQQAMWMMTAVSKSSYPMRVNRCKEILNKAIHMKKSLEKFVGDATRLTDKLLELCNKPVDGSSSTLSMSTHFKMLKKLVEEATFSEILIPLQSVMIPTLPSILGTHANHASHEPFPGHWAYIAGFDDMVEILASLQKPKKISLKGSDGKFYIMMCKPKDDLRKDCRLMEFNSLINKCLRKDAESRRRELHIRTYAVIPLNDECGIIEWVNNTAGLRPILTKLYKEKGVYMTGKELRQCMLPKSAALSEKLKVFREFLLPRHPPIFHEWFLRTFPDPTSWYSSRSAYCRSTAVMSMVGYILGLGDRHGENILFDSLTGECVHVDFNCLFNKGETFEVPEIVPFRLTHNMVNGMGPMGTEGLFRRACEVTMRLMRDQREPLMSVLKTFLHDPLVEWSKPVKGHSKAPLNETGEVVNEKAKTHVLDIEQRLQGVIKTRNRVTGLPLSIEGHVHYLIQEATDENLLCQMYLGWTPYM
# [3] = system: MDA-MB-453; test: Antiproliferative activity against human MDA-MB-453 cells assessed as reduction in cell viability incubated for 120 hrs by Cell-titer Glo luminescent assay; type: functional, cell-based
# [4] = system: HCT-116; test: Antiproliferative activity against human HCT-116 cells assessed as reduction in cell viability incubated for 120 hrs by Cell-titer Glo luminescent assay; type: functional, cell-based
# [5] = system: LoVo; test: Inhibition of DNA damage repair in human LoVo cells assessed as decrease in MRE11 expression level incubated for 24 hrs by Western blot analysis; type: functional, cell-based; conditions: dose 0.3-1 µM
# [6] = system: CWR22R; test: Antitumor activity against human 22Rv1 cells xenografted in male Balb/c nude mouse assessed as tumor growth inhibition at 10 to 60 mg/kg QD, po measured every 3 days for 18 days; type: functional, organism-based; conditions: dose 10-60 mg/kg, time 18.0 day
# [7] = system: MCF7; test: Antiproliferative activity against human MCF7 cells assessed as reduction in cell viability incubated for 120 hrs by Cell-titer Glo luminescent assay; type: functional, cell-based
# [8] = biological target: Phosphatidylinositol 4-phosphate 3-kinase C2 domain-containing subunit beta (Homo sapiens) (UniProt O00750); test: Inhibition of PIK3C2B (unknown origin) at 10 uM preincubated for 15 mins and measured after 60 mins by Z-LYTE screening relative to control; conditions: time 75.0 min
# [9] = system: NCI-H1703; test: Antiproliferative activity against human NCI-H1703 cells assessed as reduction in cell viability incubated for 120 hrs by Cell-titer Glo luminescent assay; type: functional, cell-based
# [10] = biological target: Kappa-type opioid receptor (Homo sapiens) (UniProt P41145); test: Inhibition of human kappa opioid at 10 uM; conditions: time 75.0 min
# [11] = system: LNCaP; test: Antiproliferative activity against human LNCaP cells assessed as reduction in cell viability incubated for 120 hrs by Cell-titer Glo luminescent assay; type: functional, cell-based
# [12] = system: SK-OV-3; test: Antiproliferative activity against human SK-OV-3 cells assessed as reduction in cell viability incubated for 120 hrs by Cell-titer Glo luminescent assay; type: functional, cell-based
# [13] = system: JeKo-1; test: Antiproliferative activity against human JeKo-1 cells assessed as reduction in cell viability incubated for 120 hrs by Cell-titer Glo luminescent assay; type: functional, cell-based
# [14] = system: LoVo; test: Inhibition of DNA damage repair in human LoVo cells assessed as decrease in Chk1 expression level incubated for 24 hrs by Western blot analysis; type: functional, cell-based; conditions: dose 0.3-1 µM
# [15] = system: LoVo; test: Inhibition of DNA damage repair in human LoVo cells assessed as upregulation of p-Histone H2A.X protein level at 0.3 to 1 uM incubated for 24 hrs by Western blot analysis; type: functional, cell-based; conditions: dose 0.3-1 µM
# [16] = system: HepG2; test: Antiproliferative activity against human HepG2 cells assessed as reduction in cell viability incubated for 120 hrs by Cell-titer Glo luminescent assay; type: functional, cell-based
# [17] = system: U2OS; test: Antiproliferative activity against human U2OS cells assessed as reduction in cell viability incubated for 120 hrs by Cell-titer Glo luminescent assay; type: functional, cell-based
# [18] = system: OVCAR-8; test: Antiproliferative activity against human OVCAR-8 cells assessed as reduction in cell viability incubated for 120 hrs by Cell-titer Glo luminescent assay; type: functional, cell-based
# [19] = system: A2780; test: Antiproliferative activity against human A2780 cells assessed as reduction in cell viability incubated for 120 hrs by Cell-titer Glo luminescent assay; type: functional, cell-based
# [20] = system: CWR22R; test: Antiproliferative activity against human 22Rv1 cells incubated for 120 hrs by Cell-titer Glo luminescent assay
# [21] = system: JeKo-1; test: Antitumor activity against human JeKo-1 cells xenografted in female CB17 SCID mouse at 40 mg/kg BID, po administered as 3 days on and 4 days off schedule for 24 days; type: functional, organism-based; conditions: time 24.0 day
# [22] = system: MDA-MB-436; test: Antiproliferative activity against human MDA-MB-436 cells assessed as reduction in cell viability incubated for 120 hrs by Cell-titer Glo luminescent assay; type: functional, cell-based
# [23] = system: LoVo; test: Inhibition of DNA damage repair in human LoVo cells assessed as decrease in RAD51 expression level incubated for 24 hrs by Western blot analysis; type: functional, cell-based; conditions: dose 0.3-1 µM
# [24] = system: LoVo; test: Induction of cell cycle arrest in human LoVo cells assessed as accumulation of cells at G2 phase incubated for 24 hrs by PI staining based flow cytometric analysis; type: functional; conditions: dose 1-3 µM
# [25] = system: A549; test: Antiproliferative activity against human A549 cells assessed as reduction in cell viability incubated for 120 hrs by Cell-titer Glo luminescent assay; type: functional, cell-based
# [26] = system: KATO III; test: Antiproliferative activity against human KATO III stomach cancer cell line assessed as reduction in cell viability incubated for 120 hrs by Cell-titer Glo luminescent assay; type: functional, cell-based
# [27] = biological target: Proto-oncogene tyrosine-protein kinase ROS (Homo sapiens) (UniProt P08922); test: Inhibition of ROS1 (unknown origin) at 10 uM preincubated for 15 mins and measured after 60 mins by Z-LYTE screening relative to control; conditions: time 75.0 min
# Proto-oncogene tyrosine-protein kinase ROS (Homo sapiens), sequence (P08922 whole entry): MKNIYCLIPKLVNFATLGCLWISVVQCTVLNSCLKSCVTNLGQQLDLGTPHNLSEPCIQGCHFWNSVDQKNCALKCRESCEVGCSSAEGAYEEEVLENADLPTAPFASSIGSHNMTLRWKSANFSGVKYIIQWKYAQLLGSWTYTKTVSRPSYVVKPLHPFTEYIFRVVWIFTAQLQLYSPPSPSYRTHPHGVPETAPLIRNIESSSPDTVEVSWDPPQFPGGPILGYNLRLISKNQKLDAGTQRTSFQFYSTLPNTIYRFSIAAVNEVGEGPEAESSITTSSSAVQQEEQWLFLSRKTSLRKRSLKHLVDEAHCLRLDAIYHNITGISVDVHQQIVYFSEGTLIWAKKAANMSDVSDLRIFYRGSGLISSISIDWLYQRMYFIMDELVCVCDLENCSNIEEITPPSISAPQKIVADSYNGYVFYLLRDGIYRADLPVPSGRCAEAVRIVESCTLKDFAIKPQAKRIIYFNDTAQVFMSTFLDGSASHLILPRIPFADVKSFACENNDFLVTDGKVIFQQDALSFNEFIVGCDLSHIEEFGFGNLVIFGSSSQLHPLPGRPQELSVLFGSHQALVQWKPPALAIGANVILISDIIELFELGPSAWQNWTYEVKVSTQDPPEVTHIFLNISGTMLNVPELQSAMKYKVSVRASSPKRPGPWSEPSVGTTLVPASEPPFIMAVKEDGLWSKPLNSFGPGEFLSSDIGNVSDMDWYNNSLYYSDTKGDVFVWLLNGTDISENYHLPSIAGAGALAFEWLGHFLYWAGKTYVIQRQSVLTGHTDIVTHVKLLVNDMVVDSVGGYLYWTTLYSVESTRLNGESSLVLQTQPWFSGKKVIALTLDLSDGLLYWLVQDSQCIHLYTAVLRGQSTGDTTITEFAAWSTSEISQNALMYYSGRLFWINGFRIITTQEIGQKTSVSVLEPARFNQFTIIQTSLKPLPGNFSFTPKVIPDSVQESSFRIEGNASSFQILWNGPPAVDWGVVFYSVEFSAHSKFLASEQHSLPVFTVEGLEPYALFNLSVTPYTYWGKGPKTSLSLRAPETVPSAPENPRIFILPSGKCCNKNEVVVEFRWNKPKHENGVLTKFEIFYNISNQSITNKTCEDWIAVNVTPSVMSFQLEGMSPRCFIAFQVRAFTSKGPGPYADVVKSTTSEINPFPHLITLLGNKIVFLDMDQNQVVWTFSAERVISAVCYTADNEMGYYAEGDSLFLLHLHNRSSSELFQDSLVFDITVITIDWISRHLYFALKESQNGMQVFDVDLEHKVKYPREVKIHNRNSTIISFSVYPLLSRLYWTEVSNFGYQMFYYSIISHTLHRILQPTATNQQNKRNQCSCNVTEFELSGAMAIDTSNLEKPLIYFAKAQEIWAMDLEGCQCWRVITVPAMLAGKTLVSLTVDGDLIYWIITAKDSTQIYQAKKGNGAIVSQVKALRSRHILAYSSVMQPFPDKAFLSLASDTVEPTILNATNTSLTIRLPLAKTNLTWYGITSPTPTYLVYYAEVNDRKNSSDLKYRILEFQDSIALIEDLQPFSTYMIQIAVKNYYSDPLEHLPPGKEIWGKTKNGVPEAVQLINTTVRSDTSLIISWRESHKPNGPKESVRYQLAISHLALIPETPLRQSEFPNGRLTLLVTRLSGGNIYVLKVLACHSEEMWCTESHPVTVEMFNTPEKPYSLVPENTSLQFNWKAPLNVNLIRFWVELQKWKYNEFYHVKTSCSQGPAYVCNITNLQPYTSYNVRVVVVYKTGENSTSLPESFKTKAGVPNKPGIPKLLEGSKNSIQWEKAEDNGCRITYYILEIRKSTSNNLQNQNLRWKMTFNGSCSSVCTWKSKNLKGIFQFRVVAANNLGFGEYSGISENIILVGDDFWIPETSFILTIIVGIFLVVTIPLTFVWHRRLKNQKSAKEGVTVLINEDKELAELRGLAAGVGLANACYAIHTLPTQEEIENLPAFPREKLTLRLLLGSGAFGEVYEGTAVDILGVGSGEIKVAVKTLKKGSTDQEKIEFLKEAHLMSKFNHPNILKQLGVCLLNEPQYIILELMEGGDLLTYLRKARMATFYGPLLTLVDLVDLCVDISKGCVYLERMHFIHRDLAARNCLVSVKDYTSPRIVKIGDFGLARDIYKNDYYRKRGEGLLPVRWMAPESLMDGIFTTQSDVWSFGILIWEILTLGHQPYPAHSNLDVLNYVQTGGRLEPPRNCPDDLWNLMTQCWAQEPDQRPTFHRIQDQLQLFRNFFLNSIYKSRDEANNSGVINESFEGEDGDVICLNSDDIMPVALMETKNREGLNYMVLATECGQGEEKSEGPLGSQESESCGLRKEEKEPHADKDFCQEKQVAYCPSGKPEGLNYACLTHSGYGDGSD
# [28] = biological target: Serine/threonine-protein kinase mTOR (Homo sapiens, UniProt P42345); test: Inhibition of mTOR (unknown origin) at 10 uM preincubated for 15 mins and measured after 60 mins by Z-LYTE screening relative to control; conditions: time 75.0 min
# [29] = system: NCI-H69; test: Antiproliferative activity against human NCI-H69 cells assessed as reduction in cell viability incubated for 120 hrs by Cell-titer Glo luminescent assay; type: functional, cell-based
# [30] = system: T-24; test: Antiproliferative activity against human T24 cells assessed as reduction in cell viability incubated for 120 hrs by Cell-titer Glo luminescent assay; type: functional, cell-based
# [31] = system: Huh-7; test: Antiproliferative activity against human Huh-7 cells assessed as reduction in cell viability incubated for 120 hrs by Cell-titer Glo luminescent assay; type: functional, cell-based
# [32] = system: MDA-MB-231; test: Antiproliferative activity against human MDA-MB-231 cells assessed as reduction in cell viability incubated for 120 hrs by Cell-titer Glo luminescent assay; type: functional, cell-based
# [33] = organism: Homo sapiens; test: Inhibition of DNA-PK (unknown origin) at 10 uM preincubated for 15 mins and measured after 60 mins by Z-LYTE screening relative to control; conditions: time 75.0 min
compound,measurement,setting,value
Cc1n[nH]c(C)c1-c1cc(N2CC3CCC(C2)O3)nc2c(-c3ccccc3)cnn12,IC50,[1],872 nM
Cc1cc(-c2cnn3c(-c4c(C)nn(-c5cccnc5)c4C)cc(N4CC5CCC(C4)O5)nc23)[nH]n1,IC50,[1],150 nM
Cc1nn(-c2ccncc2)c(C)c1-c1cc(N2CC3CCC(C2)O3)nc2c(-c3ccn[nH]3)cnn12,IC50,[1],1790 nM
Cc1nn(-c2cncnc2)c(C)c1-c1cc(N2CC3CCC(C2)O3)nc2c(-c3ccn[nH]3)cnn12,IC50,[1],1400 nM
Cc1n[nH]c(C)c1-c1cc(N2CC3CCC(C2)O3)n2ncc(-c3cnn(C)c3C)c2n1,IC50,[2],> 500 nM
same,IC50,[1],> 10000 nM
Cc1nn(-c2cccnc2)c(C)c1-c1cc(N2CC3CCC(C2)O3)nc2c(-c3ccn[nH]3)cnn12 [listing 1 of 2 here],IC50,[1],216 nM
Cc1nn(-c2cncc(C#N)c2)c(C)c1-c1cc(N2CC3CCC(C2)O3)nc2c(-c3ccn[nH]3)cnn12,IC50,[1],1410 nM
Cc1n[nH]c(C)c1-c1cc(N2CC3CCC(C2)O3)n2ncc(-c3ccnn3C)c2n1,IC50,[1],6730 nM
Cc1nn(-c2cncc(Br)c2)c(C)c1-c1cc(N2CC3CCC(C2)O3)nc2c(-c3ccn[nH]3)cnn12,IC50,[1],437 nM
Cc1nn(-c2cccnc2)c(C)c1-c1cc(N2C[C@@H]3C[C@H]2CO3)nc2c(-c3ccn[nH]3)cnn12,IC50,[1],4080 nM
Cc1n[nH]c(C)c1-c1cc(N2CC3CCC(C2)O3)n2ncc(-c3ccccc3)c2n1,IC50,[2],> 500 nM
same,IC50,[1],> 10000 nM
Cc1nn(-c2cncc(F)c2)c(C)c1-c1cc(N2CC3CCC(C2)O3)nc2c(-c3ccn[nH]3)cnn12,IC50,[1],1330 nM
Cc1cncc(-n2nc(C)c(-c3cc(N4CC5CCC(C4)O5)nc4c(-c5ccn[nH]5)cnn34)c2C)c1,IC50,[2],10 nM
same,IC50,[1],234 nM
Cc1n[nH]c(C)c1-c1cc(N2CC3CCC(C2)O3)nc2c(-c3ccn[nH]3)cnn12,IC50,[1],614 nM
Cc1nn(-c2cccnc2)c(C)c1-c1cc(N2CC3CCC(C2)O3)nc2c(-c3ccn[nH]3)cnn12 [listing 2 of 2 here],Activity,[3],Active
same,Activity,[4],Active
same,inhibition,[5],Dose-dependent-effect
same,TGI,[6],Active
same,Activity,[7],Active
same,inhibition,[8],> 80%
same,Activity,[9],Active
same,inhibition,[10],Active
same,Activity,[11],Active
same,Activity,[12],Active
same,Activity,[13],Active
same,inhibition,[14],Dose-dependent-effect
same,inhibition,[15],Active
same,Activity,[16],Active
same,Activity,[17],Active
same,Activity,[18],Active
same,Activity,[19],Active
same,Activity,[20],Active
same,Activity,[21],Active
same,Activity,[22],Active
same,inhibition,[23],Dose-dependent-effect
same,Activity,[24],Dose-dependent-effect
same,Activity,[25],Active
same,Activity,[26],Active
same,inhibition,[27],> 80%
same,inhibition,[28],> 80%
same,Activity,[29],Active
same,Activity,[30],Active
same,Activity,[31],Active
same,Activity,[32],Active
same,inhibition,[33],> 80%
Cc1nn(-c2cncc(C(F)(F)F)c2)c(C)c1-c1cc(N2CC3CCC(C2)O3)nc2c(-c3ccn[nH]3)cnn12,IC50,[1],2820 nM
Cc1nn(-c2cncc(C(F)F)c2)c(C)c1-c1cc(N2CC3CCC(C2)O3)nc2c(-c3ccn[nH]3)cnn12,IC50,[1],972 nM
